Assay results published in US9320735B2, “Myeloid derived suppressor cell inhibiting agents” (Colorado State University Research Foundation, priority 2010, dated 2016).
Where two headings read alike, the source gives them in different places.

Assays:
CCR2 [1] = target: T1, CCR2 (Homo sapiens, UniProt P41597); conditions: bind or taxis not given; read-out: CCR2 antagonist potency; cited from earlier work
[2] = system: MCP-1-stimulated calcium influx; conditions: read-out: IC50, block of MCP-1-stimulated calcium influx; cited from earlier work
CCR2 [3] = target: T2, CCR2 (Mus musculus, UniProt P51683); assay: Antibody titers to ovalbumin after CLDC/ovalbumin vaccination with RS102895 (FIG. 33); format: in vivo, mice; conditions: 5 mg/kg 1 day before, same day, 1 day after
T2 construct: endogenous in cells
Experimental: FIG. 33. Effects of co-administration of RS102895 (small molecule inhibitor, Tocris Bioscience), on antibody responses following vaccination via two different modes of administration i.p. (intraperitoneally) or SQ (subcutaneous). Mice were vaccinated SQ with standard vaccine adjuvant (CLDC) and 5 ug ovalbumin, and boosted 10 days later. The first group of mice (n=4 per group) received the vaccine only (cross-hatch bar). A second group of mice was vaccinated and also treated 1 day before, on the same day, and 1 day after with 5 mg/kg of the CCR2 antagonist RS102895 (horizontal line bar), administered i.p. A third group of mice was vaccinated and also treated 1 day before, on the same day, and 1 day after with 5 mg/kg of the CCR2 antagonist RS102895, administered s.c. at the site of vaccination (vertical line bar). Antibody titers to ovalbumin were determined 2 weeks after the boost and plotted as endpoint dilution titers for all animals in all groups. […]
Mice were vaccinated subcutaneous (s.c.) with standard vaccine adjuvant (CLDC) (Cationic liposome-DNA complexes) and 5 ug ovalbumin and boosted 10 days later. […] Antibody titers to ova were determined 2 weeks after the boost and plotted as endpoint dilution titers. […]

human recombinant CCR1 = target: T3, human recombinant CCR1 (Homo sapiens, UniProt P32246); conditions: read-out: IC50 for inhibition of human recombinant CCR1 receptor; cited from earlier work
T3 sequence (P32246 1-355): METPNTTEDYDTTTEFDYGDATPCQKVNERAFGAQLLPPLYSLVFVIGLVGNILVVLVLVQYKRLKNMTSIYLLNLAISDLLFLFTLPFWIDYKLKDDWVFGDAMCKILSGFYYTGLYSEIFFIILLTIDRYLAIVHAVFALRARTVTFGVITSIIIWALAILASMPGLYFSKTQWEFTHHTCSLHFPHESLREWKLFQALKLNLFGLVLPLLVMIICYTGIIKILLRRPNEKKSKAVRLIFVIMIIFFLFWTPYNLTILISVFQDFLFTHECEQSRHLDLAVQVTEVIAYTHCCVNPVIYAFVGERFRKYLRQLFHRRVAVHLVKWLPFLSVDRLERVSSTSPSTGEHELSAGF

α1A receptor = target: T4, α1A receptor (Homo sapiens, UniProt P35348); conditions: cited from earlier work
T4 sequence (P35348 1-466): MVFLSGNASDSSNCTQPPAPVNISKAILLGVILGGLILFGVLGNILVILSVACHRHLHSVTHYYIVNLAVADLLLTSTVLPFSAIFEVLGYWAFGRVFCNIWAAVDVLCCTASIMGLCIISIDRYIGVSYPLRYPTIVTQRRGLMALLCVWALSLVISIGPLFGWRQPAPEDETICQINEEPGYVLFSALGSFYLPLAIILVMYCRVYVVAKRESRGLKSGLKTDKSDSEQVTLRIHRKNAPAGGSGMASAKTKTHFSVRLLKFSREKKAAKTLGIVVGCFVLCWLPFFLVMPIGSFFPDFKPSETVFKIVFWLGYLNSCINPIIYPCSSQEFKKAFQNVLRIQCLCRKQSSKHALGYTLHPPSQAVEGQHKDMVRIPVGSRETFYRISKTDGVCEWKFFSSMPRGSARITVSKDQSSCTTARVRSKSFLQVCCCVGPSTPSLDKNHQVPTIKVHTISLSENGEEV

5-HT1A receptor = conditions: cited from earlier work
[4] = system: MCP-1-stimulated chemotaxis; conditions: read-out: IC50, block of MCP-1-stimulated chemotaxis; cited from earlier work
α1D receptor = target: T5, α1D receptor (Homo sapiens, UniProt P25100); conditions: cited from earlier work
T5 sequence (P25100 1-572): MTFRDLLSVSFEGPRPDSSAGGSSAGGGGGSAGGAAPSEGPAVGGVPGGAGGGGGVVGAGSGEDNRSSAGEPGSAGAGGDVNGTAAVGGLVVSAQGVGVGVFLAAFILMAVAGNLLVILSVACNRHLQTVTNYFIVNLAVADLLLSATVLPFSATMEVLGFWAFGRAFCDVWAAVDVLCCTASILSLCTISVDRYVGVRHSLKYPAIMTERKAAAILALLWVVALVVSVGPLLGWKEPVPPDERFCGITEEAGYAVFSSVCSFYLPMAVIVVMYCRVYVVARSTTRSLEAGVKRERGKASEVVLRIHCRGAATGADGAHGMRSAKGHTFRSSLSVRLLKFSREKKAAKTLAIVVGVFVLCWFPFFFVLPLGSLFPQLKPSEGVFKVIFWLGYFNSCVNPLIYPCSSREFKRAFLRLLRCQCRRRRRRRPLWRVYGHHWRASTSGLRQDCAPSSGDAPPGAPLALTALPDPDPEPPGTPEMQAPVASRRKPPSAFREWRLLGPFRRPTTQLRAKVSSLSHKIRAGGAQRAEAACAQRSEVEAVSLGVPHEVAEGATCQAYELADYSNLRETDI

human recombinant CCR2b = target: T6, human recombinant CCR2b (Homo sapiens, UniProt P41597); conditions: read-out: IC50 for inhibition of human recombinant CCR2b receptor; cited from earlier work
T6 sequence (P41597 1-360 isoform P41597-2): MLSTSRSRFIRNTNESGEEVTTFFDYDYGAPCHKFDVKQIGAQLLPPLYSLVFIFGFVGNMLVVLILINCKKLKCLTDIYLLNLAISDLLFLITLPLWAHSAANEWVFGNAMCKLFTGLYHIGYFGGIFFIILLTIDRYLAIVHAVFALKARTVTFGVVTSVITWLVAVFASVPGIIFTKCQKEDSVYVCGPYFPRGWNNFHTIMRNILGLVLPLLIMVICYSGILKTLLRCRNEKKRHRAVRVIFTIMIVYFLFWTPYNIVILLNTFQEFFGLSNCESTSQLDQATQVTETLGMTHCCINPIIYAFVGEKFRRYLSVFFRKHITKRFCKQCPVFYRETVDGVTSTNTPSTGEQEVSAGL

CCR2 [5] = target: T2, CCR2; assay: IFN-γ release by spleen cells of vaccinated mice treated with RS102895 (FIG. 34); format: in vivo
Experimental: FIG. 34. Effects of co-administration of RS102895 (small molecule inhibitor, Tocris BioSciences), on spleen lymphocyte production of IFN-γ from vaccinated animals (T cell response). Mice were vaccinated s.c. with standard vaccine adjuvant (CLDC) and 5 ug ovalbumin and boosted 10 days later. A first group of mice (n=4 per group) received the vaccine only (cross-hatch). A second group of mice was vaccinated and also treated 1 day before, on the same day, and 1 day after with 5 mg/kg of the CCR2 antagonist RS102895, administered i.p. (horizontal line bar). A third group of mice was vaccinated and also treated 1 day before, on the same day, and 1 day after with 5 mg/kg of the CCR2 antagonist RS102895, administered s.q. at the site of vaccination (vertical line bar). The mice were sacrificed 2 weeks after the booster vaccination and spleen cells were incubated in vitro with ovalbumin (50 ug/ml) for 72 hours. Release of […] into the supernatants was determined by ELISA.
Mice were vaccinated s.c. with standard vaccine adjuvant (CLDC) and 5 ug ovalbumin and boosted 10 days later. One group of mice (n=4 per group) received the vaccine only. A second group of mice was vaccinated and also treated 1 day before, on the same day, and 1 day after with 5 mg/kg of the CCR2 antagonist RS102895, administered i.p. A third group of mice was vaccinated and also treated 1 day before, on the same day, and 1 day after with 5 mg/kg of the CCR2 antagonist RS102895, administered s.c. at the site of vaccination. The mice were sacrificed 2 weeks after the booster vaccination and spleen cells were incubated in vitro with ovalbumin (50 ug/ml) for 72 hours and release of IFN-γ into the supernatants was determined by ELISA. […] The data from this study is presented at FIG. 34.

CCR2 [6] = target: T1, CCR2; conditions: read-out: CCR2 IC(50) bind; cited from earlier work

T1 sequence (P41597 whole entry, species assumed): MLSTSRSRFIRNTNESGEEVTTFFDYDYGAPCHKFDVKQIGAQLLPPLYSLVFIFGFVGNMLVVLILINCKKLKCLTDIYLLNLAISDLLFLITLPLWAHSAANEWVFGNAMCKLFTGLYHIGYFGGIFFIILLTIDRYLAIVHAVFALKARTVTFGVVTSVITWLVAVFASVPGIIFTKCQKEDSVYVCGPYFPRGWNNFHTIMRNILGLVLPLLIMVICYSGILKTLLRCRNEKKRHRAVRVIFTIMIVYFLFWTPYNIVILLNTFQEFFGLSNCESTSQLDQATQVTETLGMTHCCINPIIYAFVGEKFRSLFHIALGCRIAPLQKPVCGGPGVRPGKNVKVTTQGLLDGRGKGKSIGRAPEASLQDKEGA
T2 sequence (P51683 whole entry): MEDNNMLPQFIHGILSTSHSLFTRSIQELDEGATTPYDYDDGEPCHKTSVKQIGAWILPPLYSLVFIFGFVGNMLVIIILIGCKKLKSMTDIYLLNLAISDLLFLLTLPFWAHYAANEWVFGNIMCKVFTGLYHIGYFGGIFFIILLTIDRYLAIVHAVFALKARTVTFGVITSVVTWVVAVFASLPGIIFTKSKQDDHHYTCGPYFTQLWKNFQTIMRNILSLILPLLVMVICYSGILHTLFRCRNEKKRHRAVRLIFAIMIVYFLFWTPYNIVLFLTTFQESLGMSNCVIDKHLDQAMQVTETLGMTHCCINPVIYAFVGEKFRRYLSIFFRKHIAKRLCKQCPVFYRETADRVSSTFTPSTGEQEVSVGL

Q: For O=C(CNC(=O)c1ccccc1)NC1CCN(Cc2ccccc2)C1 (stereo not drawn) [3-Aminopyrrolidines], which IC50 (CCR2 [1]) is on record?
A: 3 nM

Q: What does the source list for Cl.O=C1Nc2ccccc2C2(CCN(CCc3ccc(C(F)(F)F)cc3)CC2)O1 [RS102895]?
A: IC50 [2]: 32 nM; antibody titers to ova relative to vaccine alone (CCR2 [3]; either route): ≥ 2 ×; antibody titers to ovalbumin vs vaccine alone (CCR2 [3]; i.p. or s.c., 2 weeks after boost): significantly higher antibody titers; IC50 (human recombinant CCR1): 17800 nM; inhibition of α1A receptor (α1A receptor): inhibits; inhibition of 5-HT1A receptor (5-HT1A receptor): inhibits; IC50 [4]: 1700 nM; inhibition of α1D receptor (α1D receptor): inhibits; IC50 (human recombinant CCR2b): 360 nM; IFN-γ production by spleen cells (CCR2 [5]; 5 mg/kg SQ at site of vaccination, ovalbumin 50 ug/ml 72 hours, without CCR2 antagonist about 450): about 1,400 pg/ml; IFN-γ production by spleen lymphocytes (CCR2 [5]; 5 mg/kg i.p., ovalbumin 50 ug/ml 72 hours, without CCR2 antagonist about 450): about 2,300 pg/ml; IFN-γ production vs vaccinated without RS102895 (CCR2 [5]; 5 mg/kg, either route): significantly higher amounts of IFN-γ

Q: Which IC50 (CCR2 [6]) does the source give for CN(CCN1CCCCC1)c1ccc(-c2nc3cc(Sc4ccc(Cl)c(Cl)c4)ccc3[nH]2)cc1 [Benzimidazoles] here?
A: 200 to 300 nM

Q: With O=C(/C=C/c1ccc(Cl)c(Cl)c1)NC1CCC(CN2C3CCC2CC(c2c[nH]c4ccc(O)cc24)C3)CC1 (stereo not drawn) [SB-380732] as the compound, how does the IC50 (CCR2 [6]) read?
A: 50 nM
